Patent publication US9617244B2, “Antibacterial quinoline derivatives” (JANSSEN PHARMACEUTICA NV, priority 2012, dated 2017)
≈ marks a conversion by molar mass, not a printed value. Where a name gives a salt, the structure may show the parent alone.

Assays:
[1] = tested on: Staphylococcus aureus (ATCC29213); experiment: In-vitro anti-bacterial activity, microtitre plate assay, IC90 determination (non-mycobacterial strains); assay type: cell-based; conditions: 90% inhibitory concentration for bacterial growth, resazurin fluorescence; for IC90: Staphylococcus aureus, ATCC29213, 24 h, read-out: IC90 STA B29213; for IC90 STA B29213: 24 hours
Procedure, shortened: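 Growth inhibition measured fluorometrically with resazurin (530/590 nm) after overnight 37 °C incubation under normal atmosphere. Bacteria added at roughly 100 TCID50 per well in Mueller-Hinton broth to five-fold compound dilution series; IC90 reported in μg/ml.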

[2] = tested on: Mycobacterium smegmatis (ATCC607); experiment: In-vitro anti-bacterial activity against strain M. Smegmatis ATCC607; assay type: cell-based; conditions: 90% inhibitory concentration for bacterial growth, Alamar Blue fluorescence; for IC90: Mycolicibacterium smegmatis, ATCC607, 48 h, read-out: IC90 MSM 607; for IC90 MSM 607: 48 hours
Procedure, shortened: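 IC90 (μg/ml) derived from Alamar Blue fluorescence (530/590 nm) after 48 h growth at 37 °C under 5% CO2. About 250 CFU per well in Mueller-Hinton broth faced five-fold serial compound dilutions in BSA-containing wells.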

| SMILES | IC90 STA B29213 [1] | IC90 MSM 607 [2] | other results |
| --- | --- | --- | --- |
| COc1nc2ccc(Br)cc2cc1C(c1cccc(Cl)c1)C1(O)CCNC(Cc2ccccc2)C1 (stereo not shown) (as salt: fumarate) [Compound 35] | – | – | melting point: 145 °C |
| COc1nc2ccc(F)cc2cc1C(c1ccc(Cl)cc1)C1(O)CCNC(Cc2ccccc2)C1 (stereo not shown) (as salt: fumarate) [Compound 54] | – | – | melting point: 209 °C |
| COc1nc2ccc(F)cc2cc1C(c1ccc(Cl)cc1)C1(O)CCNC(Cc2ccccc2)C1 (stereo not shown) (as salt: fumarate) [Compound 55] | – | – | melting point: 120 °C |
| CCCN(C)CC1CC(O)(C(c2ccc(Cl)cc2)c2cc3cc(Cl)ccc3nc2OC)CCN1 (stereo not shown) (as salt: fumarate) [Compound 64] | – | – | melting point: 141 °C |
| COc1nc2ccc(Br)cc2cc1C(c1ccc(Cl)cc1)C1(O)CCN(Cc2ccccc2)C(Cc2ccccc2)C1 (stereo not shown) (as salt: fumarate) [Compound 76] | – | – | melting point: 148 °C |
| COc1nc2ccc(Br)cc2cc1C(c1ccc(Cl)cc1)C1(O)CCNC(Cc2ccccc2)C1 (stereo not shown) (as salt: fumarate) [Compound 77] | – | – | melting point: 155 °C |
| CSc1nc2ccc(Br)cc2cc1C(c1ccc(Cl)cc1)C1(O)CCNC(Cc2ccccc2)C1 (stereo not shown) (as salt: fumarate) [Compound 88] | – | – | melting point: 194 °C |
| COc1nc2ccc(SC)cc2cc1C(c1ccc(Cl)cc1)C1(O)CCNC(Cc2ccccc2)C1 (stereo not shown) (as salt: fumarate) [Compound 90] | – | – | melting point: 140 °C |
| COc1nc2ccc(SC)cc2cc1C(c1ccc(Cl)cc1)C1(O)CCNC(Cc2ccccc2)C1 (stereo not shown) (as salt: fumarate) [Compound 93] | – | – | melting point: > 250 °C |
| COc1nc2ccc(Cl)cc2cc1C(c1ccc(Cl)cc1)C1(O)CCNC(Cc2ccccc2)C1 (stereo not shown) (as salt: fumarate) [Compound 94] | – | – | melting point: 168 °C |
| COc1nc2ccc(Br)cc2cc1C(c1ccc(Cl)cc1)C1(O)CCNC(Cc2ccc(F)c(F)c2)C1 (stereo not shown) (as salt: fumarate) [Compound 113] | – | – | melting point: 130 °C |
| CS(=O)(=O)c1ccc2[nH]c(=O)c(C(c3ccc(Cl)cc3)C3(O)CCNC(Cc4ccccc4)C3)cc2c1 (stereo not shown) (as salt: fumarate) [Compound 119] | – | – | melting point: 215 °C |
| COc1nc2ccccc2cc1C(c1ccc(Cl)cc1)C1(O)CCNC(Cc2ccc(F)c(F)c2)C1 (stereo not shown) (as salt: fumarate) [Compound 139] | – | – | melting point: 130 °C |
| COc1nc2ccc(SC)cc2cc1C(c1ccccc1)C1(O)CCNC(Cc2ccccc2)C1 (stereo not shown) (as salt: fumarate) [Compound 141] | – | – | melting point: 155 °C |
| COc1nc2ccccc2cc1C(c1ccccc1)C1(O)CCNC(Cc2ccccc2)C1 (stereo not shown) [Compound 399] | – | – | IC90 [1]: > 12.5 µg/mL; IC90 [2]: > 12.5 µg/mL |
| COc1nc2ccccc2cc1C(c1ccccc1)C1(O)CCNC(Cc2ccccc2)C1 (stereo not shown) [Compound 400] | >12.47 µg/mL | >12.47 µg/mL | – |
| COc1nc2ccccc2cc1C(c1ccccc1)C1(O)CCNC(Cc2ccccc2)C1 (stereo not shown) [Compound 401] | >12.77 µg/mL | >12.77 µg/mL | – |
| COc1nc2ccccc2cc1C(c1ccccc1)C1(O)CCNC(Cc2ccccc2)C1 (stereo not shown) [Compound 402] | >12.47 µg/mL | 12.47 µg/mL (≈ 28.4 µM) | – |
| COc1nc2ccc(Cl)cc2cc1C(c1ccc(Cl)cc1)C1(O)CCNC(c2ccccc2)C1 (stereo not shown) [Compound 403] | 9.72 µg/mL (≈ 19.7 µM) | 8.66 µg/mL (≈ 17.6 µM) | – |
| COc1nc2ccc(Cl)cc2cc1C(c1ccc(Cl)cc1)C1(O)CCNC(c2ccccc2)C1 (stereo not shown) [Compound 404] | 2.99 µg/mL (≈ 6.06 µM) | 1.68 µg/mL (≈ 3.4 µM) | – |
| COc1nc2ccc(Cl)cc2cc1C(c1ccc(Cl)cc1)C1(O)CCNC(c2ccccc2)C1 (stereo not shown) [Compound 405] | 5.26 µg/mL (≈ 10.7 µM) | 2.63 µg/mL (≈ 5.33 µM) | – |
| COc1nc2ccc(F)cc2cc1C(c1ccc(SC)cc1)C1(O)CCNC(c2ccc(F)cc2C)C1 (stereo not shown) [Compound 407] | 1.65 µg/mL (≈ 3.17 µM) | 1.17 µg/mL (≈ 2.25 µM) | – |
| COc1ccc2nc(OC)c(C(c3ccccc3)C3(O)CCNC(Cc4ccccc4)C3)cc2c1 (stereo not shown) [Compound 408] | – | – | IC90 [1]: > 19.2 µg/mL; IC90 [2]: > 19.2 µg/mL |
| COc1nc2ccc(Cl)cc2cc1C(c1ccc(Cl)cc1)C1(O)CCNCC1c1ccccc1 (stereo not shown) [Compound 409] | 2.01 µg/mL (≈ 4.07 µM) | 6.36 µg/mL (≈ 12.9 µM) | – |

| SMILES | IC90 STA B29213 [1] | IC90 MSM 607 [2] | other results |
| --- | --- | --- | --- |
| COc1nc2ccc(Cl)cc2cc1C(c1ccc(Cl)cc1)C1(O)CCNCC1c1ccccc1 (stereo not shown) [Compound 410] | 12.25 µg/mL (≈ 24.8 µM) | 7.73 µg/mL (≈ 15.7 µM) | – |
| COc1nc2ccc(Cl)cc2cc1C(c1ccc(Cl)cc1)C1(O)CCNCC1c1ccccc1 (stereo not shown) [Compound 411] | 4.10 µg/mL (≈ 8.31 µM) | 6.50 µg/mL (≈ 13.2 µM) | – |
| COc1nc2ccc(Cl)cc2cc1C(c1ccc(Cl)cc1)C1(O)CCNCC1c1ccccc1 (stereo not shown) [Compound 412] | 4.02 µg/mL (≈ 8.15 µM) | 2.02 µg/mL (≈ 4.09 µM) | – |
| COc1nc2ccccc2cc1C(c1ccccc1)C1(O)CCNC(c2ccccc2)C1 (stereo not shown) [Compound 413] | – | – | IC90 [1]: 18.2 µg/mL (≈ 43 µM); IC90 [2]: 18.2 µg/mL (≈ 43 µM) |
| COc1nc2ccccc2cc1C(c1ccccc1)C1(O)CCNC(c2ccccc2)C1 (stereo not shown) [Compound 414] | 18.39 µg/mL (≈ 43.3 µM) | 18.39 µg/mL (≈ 43.3 µM) | – |
| COc1nc2ccccc2cc1C(c1ccccc1)C1(O)CCNC(c2ccccc2)C1 (stereo not shown) [Compound 415] | 15.47 µg/mL (≈ 36.4 µM) | >15.47 µg/mL | – |
| COc1nc2ccccc2cc1C(c1ccccc1)C1(O)CCNC(c2ccc(F)cc2C)C1 (stereo not shown) [Compound 416] | 9.25 µg/mL (≈ 20.3 µM) | 9.25 µg/mL (≈ 20.3 µM) | – |
| COc1nc2ccc(F)cc2cc1C(c1ccc(S(C)(=O)=O)cc1)C1(O)CCNC(c2ccc(F)cc2C)C1 (stereo not shown) [Compound 418] | >17.6721 µg/mL | 17.67 µg/mL (≈ 32 µM) | – |
| COc1nc2ccc(Cl)cc2cc1C(c1ccc(Cl)cc1)C1(O)CCNCC1C (stereo not shown) [Compound 420] | – | 5.43 µg/mL (≈ 12.6 µM) | IC90 [1]: 5.43 µg/mL (≈ 12.6 µM) |
| COc1nc2ccc(Cl)cc2cc1C(c1ccc(Cl)cc1)C1(O)CCNCC1C (stereo not shown) [Compound 421] | 5.43 µg/mL (≈ 12.6 µM) | 5.43 µg/mL (≈ 12.6 µM) | – |
| COc1nc2ccc(Cl)cc2cc1C(c1ccc(Cl)cc1)C1(O)CCNCC1C (stereo not shown) [Compound 422] | 7.67 µg/mL (≈ 17.8 µM) | 8.61 µg/mL (≈ 20 µM) | – |
| COc1nc2ccc(Br)cc2cc1C(c1cccnc1)C1(O)CCNC(Cc2ccccc2)C1 (stereo not shown) [Compound 427] | – | – | IC90 [1]: > 16.1 µg/mL; IC90 [2]: > 16.1 µg/mL |
| COc1nc2ccc(Br)cc2cc1C(c1cccnc1)C1(O)CCNC(Cc2ccccc2)C1 (stereo not shown) [Compound 428] | 15.06 µg/mL (≈ 29 µM) | 10.66 µg/mL (≈ 20.6 µM) | – |
| COc1nc2ccc(Br)cc2cc1C(n1cccn1)C1(O)CCNC(Cc2ccccc2)C1 (stereo not shown) [Compound 429] | – | – | IC90 [1]: 7.72 µg/mL (≈ 15.2 µM); IC90 [2]: 3.87 µg/mL (≈ 7.63 µM) |
| COc1nc2ccc(Cl)cc2cc1C(c1ccc(Cl)cc1)C1(O)CCNC(c2ccc3ccccc3c2)C1 (stereo not shown) [Compound 430] | 3.39 µg/mL (≈ 6.24 µM) | 3.39 µg/mL (≈ 6.24 µM) | – |
| COc1nc2ccc(Cl)cc2cc1C(c1ccc(Cl)cc1)C1(O)CCNC(c2ccc3ccccc3c2)C1 (stereo not shown) [Compound 431] | 8.60 µg/mL (≈ 15.8 µM) | 7.66 µg/mL (≈ 14.1 µM) | – |
| COc1nc2ccc(Cl)cc2cc1C(c1ccc(Cl)cc1)C1(O)CCNC(c2ccc3ccccc3c2)C1 (stereo not shown) [Compound 432] | 7.41 µg/mL (≈ 13.6 µM) | 5.24 µg/mL (≈ 9.64 µM) | – |
| COc1nc2ccc(Cl)cc2cc1C(c1ccc(Cl)cc1)C1(O)CCNC(c2ccc3ccccc3c2)C1 (stereo not shown) [Compound 442] | 11.37 µg/mL (≈ 20.9 µM) | 3.60 µg/mL (≈ 6.62 µM) | – |
| O=c1[nH]c2ccc(Cl)cc2cc1C(c1ccc(Cl)cc1)C1(O)CCNCC1F (stereo not shown) [Compound 457] | – | – | IC90 [1]: 11.5 µg/mL (≈ 27.3 µM); IC90 [2]: 5.76 µg/mL (≈ 13.7 µM) |
| O=c1[nH]c2ccc(Cl)cc2cc1C(c1ccc(Cl)cc1)C1(O)CCNCC1F (stereo not shown) [Compound 458] | 11.50 µg/mL (≈ 27.3 µM) | 11.50 µg/mL (≈ 27.3 µM) | – |
| COc1nc2ccc(Cl)cc2cc1C(c1ccc(Cl)cc1)C1(O)CCNC(Cc2cccnc2)C1 (stereo not shown) [Compound 468] | 3.21 µg/mL (≈ 6.31 µM) | 3.21 µg/mL (≈ 6.31 µM) | – |
| COc1nc2ccc(Cl)cc2cc1C(c1ccc(Cl)cc1)C1(O)CCNC(CNc2cccnc2)C1 (stereo not shown) [Compound 469] | – | – | IC90 [1]: 8.3 µg/mL (≈ 15.9 µM); IC90 [2]: 4.16 µg/mL (≈ 7.95 µM) |
| COc1nc2ccc(Cl)cc2cc1C(c1ccc(Cl)cc1)C1(O)CCNC(CNc2cccnc2)C1 (stereo not shown) [Compound 470] | 5.23 µg/mL (≈ 9.99 µM) | 3.08 µg/mL (≈ 5.88 µM) | – |
| COc1nc2ccc(Cl)cc2cc1C(c1ccc(Cl)cc1)C1(O)CCNC(c2cccnc2)C1 (stereo not shown) [Compound 471] | – | – | IC90 [1]: 4.94 µg/mL (≈ 9.99 µM); IC90 [2]: 2.91 µg/mL (≈ 5.89 µM) |
